# Results reported in PMC6580366 (Journal of Medicinal Chemistry, 2019).
# Like-named read-outs stand apart in the source and are kept apart here.
# Key:
# [1] = dog, 1 μM; cited from earlier work
# [2] = tested on: P-gp/Caco-2; settings: 5 μM; cited from earlier work
# [3] = tested on: CYP mRNA expression (CYP1A2, CYP2B, CYP3A); settings: 0.5 to 50 μM, 48 h
# [4] = human, 1 μM; cited from earlier work
# [5] = tested on: BV2 microglia cell line; settings: cited from earlier work
# [6] = tested on: BCRP/MDCK; settings: 5 μM; cited from earlier work
structure (smiles),measurement,setting,value
"CN1CCN(c2cc(-c3ccncc3)c(-c3ccc4ccccc4c3)nn2)CC1 [Compound 11, 6-(4-Methylpiperazin-1-yl)-3-(naphthalen-2-yl)-4-(pyridin-4-yl)pyridazine]",Hepatocyte stability T1/2,[1],"Human, T1/2 > 120 min; dog, T1/2 > 120 min (see ref ([14]))"
same,Permeability Caco-2,[2],highly permeable
same,Pump substrate status P-gp,[2],Not substrate
same,CYP induction,[3],Negative (see Experimental Section)
same,Hepatocyte stability T1/2,[4],"Human, T1/2 > 120 min; dog, T1/2 > 120 min (see ref ([14]))"
same,"cell proliferation, migration, or phagocytosis",[5],"No effect on cell proliferation, migration, or phagocytosis"
same,Permeability MDCK,[6],highly permeable
same,Pump substrate status BCRP,[6],Not substrate
